Data on 7 compounds can be found in patent US7335645B2, “Effectors of dipeptidyl peptidase IV for topical use” (Probiodrug AG, priority 1999, dated 2008).

Counter-ions that a name gives are not always drawn.

For data set [1], the target named is T1, plasma-DP IV (Rattus norvegicus, UniProt P14740).
T1 construct: from tissue; host or cells: plasma of Wistar rats after oral dosing
Nature of the data set: Inhibition of plasma-DP IV after oral administration in healthy Wistar rats. Type of data set: in vivo. As to conditions: 5 μmol/300 g rat. The method, then:
FIG. 1: Systemic action of orally administered DP IV-inhibitors in healthy Wistar rats.
The course, over time, of the percentage inhibition of plasma-DP IV activity following oral administration of 5 μmol of inhibitor per 300 g of rat (n=2) is shown.
The inhibition of plasma-DP IV (systemic action) was investigated following oral administration of side chain-modified DP IV-inhibitors ([…]) compared with unmodified inhibitors in healthy Wistar rats.

Data set [2] has as its target T2, PepT1 (Oryctolagus cuniculus, UniProt P36836).
T2 construct: expressed in transfected cells
T2 sequence (P36836 1-707): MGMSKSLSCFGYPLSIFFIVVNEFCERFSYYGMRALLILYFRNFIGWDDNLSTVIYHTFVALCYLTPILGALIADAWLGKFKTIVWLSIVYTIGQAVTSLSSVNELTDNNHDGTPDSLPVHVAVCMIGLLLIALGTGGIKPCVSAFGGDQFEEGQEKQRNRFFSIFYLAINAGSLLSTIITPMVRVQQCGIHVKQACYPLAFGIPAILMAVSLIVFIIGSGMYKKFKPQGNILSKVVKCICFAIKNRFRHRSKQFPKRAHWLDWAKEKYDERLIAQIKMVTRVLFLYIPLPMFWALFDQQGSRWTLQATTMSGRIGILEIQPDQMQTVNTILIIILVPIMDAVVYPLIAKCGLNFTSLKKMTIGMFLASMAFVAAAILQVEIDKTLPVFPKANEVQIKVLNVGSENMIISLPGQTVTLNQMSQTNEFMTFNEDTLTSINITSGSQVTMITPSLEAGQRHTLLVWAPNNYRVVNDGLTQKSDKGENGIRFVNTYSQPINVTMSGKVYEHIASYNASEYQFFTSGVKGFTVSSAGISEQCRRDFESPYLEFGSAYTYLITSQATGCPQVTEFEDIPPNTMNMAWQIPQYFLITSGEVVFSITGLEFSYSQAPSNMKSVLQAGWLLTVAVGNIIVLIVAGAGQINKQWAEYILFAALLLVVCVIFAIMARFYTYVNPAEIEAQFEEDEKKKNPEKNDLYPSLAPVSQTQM
As to the kind of experiment: Inhibition of 3H-D-Phe-Ala binding to PepT1-expressing P. pastoris cells. Conditions: read-out: EC50: effective concentration inhibiting the binding of 3H-D-Phe-Ala to PepT1-expressing P. pastoris cells by 50%. The method, then: (§1) Side chain-modified glutamylthiazolidines having a structure H-Glu(X)-Thia were synthesized, with polyethylene glycol or glycine oligomers of various chain lengths being used as X (see Method A for description of synthesis). The binding characteristics of those derivatives and their transportability by the peptide transporter PepT1 were investigated and the Ki values with respect to DP IV were determined (Table 1).

The subject of data set [3] is PepT1. Nature of the data set: Transport at PepT1-expressing X. leavis oocytes, two-electrode voltage clamp method. Type of data set: cell-based. Details: unit not given here. As to conditions: PepT1-expressing oocytes of X. leavis, n.d. = not detectable. The method, then: as §1
For data set [4] the following is noted: literature statement (Reinhold et al., 1998); cited from earlier work.

T1 sequence (P14740 38-767 limits assumed): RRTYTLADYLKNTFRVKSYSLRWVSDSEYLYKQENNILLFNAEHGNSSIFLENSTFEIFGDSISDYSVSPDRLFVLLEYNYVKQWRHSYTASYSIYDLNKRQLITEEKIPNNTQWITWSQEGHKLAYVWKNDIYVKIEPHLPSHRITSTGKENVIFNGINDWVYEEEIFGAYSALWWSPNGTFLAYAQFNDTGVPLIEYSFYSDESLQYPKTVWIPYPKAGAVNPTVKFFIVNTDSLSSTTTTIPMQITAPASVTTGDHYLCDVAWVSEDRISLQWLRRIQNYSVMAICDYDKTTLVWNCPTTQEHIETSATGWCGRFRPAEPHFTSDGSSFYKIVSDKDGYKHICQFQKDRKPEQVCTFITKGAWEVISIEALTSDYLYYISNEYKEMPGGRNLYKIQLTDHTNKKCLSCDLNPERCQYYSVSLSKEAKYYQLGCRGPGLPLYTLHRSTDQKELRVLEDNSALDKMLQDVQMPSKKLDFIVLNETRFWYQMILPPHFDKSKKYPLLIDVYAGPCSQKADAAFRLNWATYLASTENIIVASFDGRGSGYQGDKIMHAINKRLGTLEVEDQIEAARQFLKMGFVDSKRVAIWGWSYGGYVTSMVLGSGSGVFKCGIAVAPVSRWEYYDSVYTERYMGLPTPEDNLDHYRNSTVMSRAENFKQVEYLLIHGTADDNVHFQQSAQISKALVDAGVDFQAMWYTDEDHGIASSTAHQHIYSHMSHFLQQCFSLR

As for `N[C@@H](CCC(=O)NCC(=O)NCC(=O)NCC(=O)NCC(=O)NCC(=O)O)C(=O)N1CCSC1` [H-Glu(Gly5)-Thia], the “Systemic action (inhibition of plasma-DP IV) after oral administration” value in data set [1] is recorded as “no systemic action of the orally administered active ingredient is detectable”. As to `NC(CCC(=O)O)C(=O)N1CCSC1` (stereo not drawn) [H-Glu-Thia], in data set [2], the EC50 worked out at 1.1 mM. Moreover, the “Imax: inward currents generated by the transport” value in data set [3] amounted to 35 ± 13. With `N[C@@H](CCC(=O)NCC(=O)O)C(=O)N1CCSC1` [Glu(Gly)-Thia], in data set [4], the “Transport of the inhibitor” value is “transported completely”. `N[C@@H](CCCCNC(=O)OCc1ccc([N+](=O)[O-])cc1)C(=O)N1CCSC1` [Lys(Z-NO2)-Thia]: in data set [4], the “Transport of the inhibitor” value is recorded as “transported completely”. Compound `N[C@@H](CCC(=O)NCC(=O)NCC(=O)NCC(=O)O)C(=O)N1CCSC1` (as salt: trifluoroacetate) [H-Glu(Gly3)-Thia] had a melting point of 91 to 94 °C. In the case of H-Glu(PEG)-Thia, in data set [2], the EC50 is above 10 mM. On to H-Gly(NHOH)-Thia, for which the EC50 in data set [2] was found to be 3.18 mM. For the same compound, in data set [3], the “Imax: inward currents generated by the transport” value came to 42 ± 11.
